Patent publication US8188085B2, “Antifungal agents” (Merck Sharp & Dohme Corp., priority 2008, dated 2012)

Molecular target: glucan synthase (GS) prepared from Candida albicans MY1055 (Candida albicans, UniProt O13428)
Assay: Glucan synthase inhibition (polymerization assay, 96-well)
Assay type: biochemical
Settings: GS from C. albicans MY1055; 60 min incubation at 22° C.; read-out: Candida Albicans GS IC50 (converted)
How it was run: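 Partially purified glucan synthase from C. albicans MY1055 membranes incorporated 0.5 mM ³H-UDPG with 25 μM GTP-γ-S, HEPES pH 7.5, over 60 min at 22 °C. TCA-precipitated glucan was counted by scintillation. IC50 (ng/mL) came from sigmoidal fits of duplicate 3-fold dilution series.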

Sequence of glucan synthase (GS) prepared from Candida albicans MY1055 (O13428 1-1897): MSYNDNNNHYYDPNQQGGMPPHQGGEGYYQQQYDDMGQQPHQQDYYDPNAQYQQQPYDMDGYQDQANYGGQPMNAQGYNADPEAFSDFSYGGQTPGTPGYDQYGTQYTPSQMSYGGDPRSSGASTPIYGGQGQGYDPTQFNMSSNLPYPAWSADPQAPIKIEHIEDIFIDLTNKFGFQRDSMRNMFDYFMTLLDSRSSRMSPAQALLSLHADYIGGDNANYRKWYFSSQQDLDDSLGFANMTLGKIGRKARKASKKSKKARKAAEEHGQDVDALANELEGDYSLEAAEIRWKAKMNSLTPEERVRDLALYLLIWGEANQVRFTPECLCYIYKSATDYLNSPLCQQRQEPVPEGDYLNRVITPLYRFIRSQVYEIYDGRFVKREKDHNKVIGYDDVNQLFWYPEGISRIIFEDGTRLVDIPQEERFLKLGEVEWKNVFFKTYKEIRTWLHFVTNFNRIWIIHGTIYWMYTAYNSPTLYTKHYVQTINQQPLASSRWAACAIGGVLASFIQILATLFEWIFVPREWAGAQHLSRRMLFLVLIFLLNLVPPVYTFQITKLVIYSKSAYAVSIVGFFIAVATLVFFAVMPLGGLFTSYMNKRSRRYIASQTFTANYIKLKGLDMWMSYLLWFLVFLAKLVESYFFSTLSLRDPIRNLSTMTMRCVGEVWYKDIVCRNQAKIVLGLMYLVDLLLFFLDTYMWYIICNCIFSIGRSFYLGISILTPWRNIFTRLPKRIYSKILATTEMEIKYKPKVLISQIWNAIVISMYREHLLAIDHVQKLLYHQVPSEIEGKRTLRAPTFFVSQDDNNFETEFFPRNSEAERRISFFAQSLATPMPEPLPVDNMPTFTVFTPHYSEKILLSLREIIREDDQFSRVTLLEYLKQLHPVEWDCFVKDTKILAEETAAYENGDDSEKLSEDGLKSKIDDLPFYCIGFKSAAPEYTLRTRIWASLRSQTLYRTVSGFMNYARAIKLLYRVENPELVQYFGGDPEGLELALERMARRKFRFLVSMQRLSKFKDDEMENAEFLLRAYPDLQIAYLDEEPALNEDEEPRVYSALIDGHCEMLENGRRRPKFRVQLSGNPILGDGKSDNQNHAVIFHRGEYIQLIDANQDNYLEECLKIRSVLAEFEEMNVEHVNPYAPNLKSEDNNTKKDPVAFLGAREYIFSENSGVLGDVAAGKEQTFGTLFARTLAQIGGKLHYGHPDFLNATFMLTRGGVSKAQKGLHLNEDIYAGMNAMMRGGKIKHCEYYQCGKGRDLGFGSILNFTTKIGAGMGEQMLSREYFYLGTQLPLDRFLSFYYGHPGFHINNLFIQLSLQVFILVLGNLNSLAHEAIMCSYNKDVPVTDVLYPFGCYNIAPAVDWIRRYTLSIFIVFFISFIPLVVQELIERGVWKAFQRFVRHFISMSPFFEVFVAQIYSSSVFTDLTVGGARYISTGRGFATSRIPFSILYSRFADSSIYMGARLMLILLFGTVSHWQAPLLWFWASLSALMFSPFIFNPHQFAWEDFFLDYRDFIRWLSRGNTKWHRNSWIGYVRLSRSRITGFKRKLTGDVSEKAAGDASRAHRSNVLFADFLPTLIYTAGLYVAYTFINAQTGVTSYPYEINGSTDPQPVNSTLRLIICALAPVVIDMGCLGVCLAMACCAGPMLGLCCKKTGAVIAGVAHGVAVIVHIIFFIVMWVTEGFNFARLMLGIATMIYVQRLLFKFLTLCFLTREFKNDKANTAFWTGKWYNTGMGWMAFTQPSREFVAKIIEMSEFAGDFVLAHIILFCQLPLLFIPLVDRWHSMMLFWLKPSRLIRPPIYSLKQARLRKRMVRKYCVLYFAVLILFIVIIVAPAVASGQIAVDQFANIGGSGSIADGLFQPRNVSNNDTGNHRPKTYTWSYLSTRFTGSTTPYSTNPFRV

`CN[C@@](C)(CO[C@H]1[C@H](n2nccc2-c2ccncc2)C[C@@]23COC[C@]1(C)[C@@H]2CC[C@H]1C3=CC[C@@]2(C)[C@H](C(=O)O)[C@@](C)([C@H](C)C(C)C)CC[C@]12C)C(C)C` [Example 312, (1S,4aR,6aS,7R,8R,10aR,10bR,12aR,14R,15R)-15-[[(2R)-2,3-dimethyl-2-(methylamino)butyl]oxy]-8-[(1R)-1,2-dimethylpropyl]-14-[5-(4-pyridinyl)-1H-pyrazol-1-yl]-1,6,6a,7,8,9,10,10a,10b,11,12,12a-dodecahydro-1,6a,8,10a-tetramethyl-4H-1,4a-propano-2H-phenanthro[1,2-c]pyran-7-carboxylic acid] and `CN[C@](C)(CO[C@H]1[C@H](n2cncn2)C[C@@]23COC[C@]1(C)[C@@H]2CC[C@H]1C3=CC[C@@]2(C)[C@H](C(=O)O)[C@@](C)([C@H](C)C(C)C)CC[C@]12C)C(C)C` [Example 3, (1S,4aR,6aS,7R,8R,10aR,10bR,12aR,14R,15R)-15-[[(2S)-2,3-dimethyl-2-(methylamino)butyl]oxy]-8-[(1R)-1,2-dimethylpropyl]-14-(1H-1,2,4-triazol-1-yl)-1,6,6a,7,8,9,10,10a,10b,11,12,12a-dodecahydro-1,6a,8,10a-tetramethyl-4H-1,4a-propano-2H-phenanthro[1,2-c]pyran-7-carboxylic acid] are within 1.5-fold of each other in IC50: 0.0178 µM for the first, 0.026 µM for the second.

First: COC(=O)c1ncn([C@@H]2C[C@@]34COC[C@](C)([C@@H]3CC[C@H]3C4=CC[C@@]4(C)[C@H](C(=O)O)[C@@](C)([C@H](C)C(C)C)CC[C@]34C)[C@H]2OC[C@](C)(N)C(C)C)n1 (single isomer, unassigned) [Example 8A]
Second: CC(C)[C@@H](C)[C@@]1(C)CC[C@]2(C)[C@H]3CC[C@@H]4[C@@]5(COC[C@@]4(C)[C@@H](OC[C@](C)(N)C(C)C)[C@H](n4cnc(Br)n4)C5)C3=CC[C@@]2(C)[C@@H]1C(=O)O [Example 6C, (1S,4aR,6aS,7R,8R,10aR,10bR,12aR,14R,15R)-15-[[(2R)-2-amino-2,3-dimethylbutyl]oxy]-14-(3-bromo-1H-1,2,4-triazol-1-yl)-8-[(1R)-1,2-dimethylpropyl]-1,6,6a,7,8,9,10,10a,10b,11,12,12a-dodecahydro-1,6a,8,10a-tetramethyl-4H-1,4a-propano-2H-phenanthro[1,2-c]pyran-7-carboxylic acid]
The IC50 of the first is 8.3-fold lower: 0.00574 µM for the first, 0.0474 µM for the second.

Compared with `CC(C)[C@@H](C)[C@@]1(C)CC[C@]2(C)[C@H]3CC[C@@H]4[C@@]5(COC[C@@]4(C)[C@@H](OC[C@](C)(N)C(C)C)[C@H](n4cccn4)C5)C3=CC[C@@]2(C)[C@@H]1C(=O)O` [Example 291, (1S,4aR,6aS,7R,8R,10aR,10bR,12aR,14R,15R)-15-[[(2R)-2-amino-2,3-dimethylbutyl]oxy]-8-[(1R)-1,2-dimethylpropyl]-14-(1H-pyrazol-1-yl)-1,6,6a,7,8,9,10,10a,10b,11,12,12a-dodecahydro-1,6a,8,10a-tetramethyl-4H-1,4a-propano-2H-phenanthro[1,2-c]pyran-7-carboxylic acid], `CN[C@@](C)(CO[C@H]1[C@H](n2cnc(N)n2)C[C@@]23COC[C@]1(C)[C@@H]2CC[C@H]1C3=CC[C@@]2(C)[C@H](C(=O)O)[C@@](C)([C@H](C)C(C)C)CC[C@]12C)C(C)C` [Example 5, (1S,4aR,6aS,7R,8R,10aR,10bR,12aR,14R,15R)-14-(3-amino-1H-1,2,4-triazol-1-yl)-15-[[(2R)-2,3-dimethyl-2-(methylamino)butyl]oxy]-8-[(1R)-1,2-dimethylpropyl]-1,6,6a,7,8,9,10,10a,10b,11,12,12a-dodecahydro-1,6a,8,10a-tetramethyl-4H-1,4a-propano-2H-phenanthro[1,2-c]pyran-7-carboxylic acid] is 4.6-fold lower in IC50: 0.0549 µM for the first, 0.012 µM for the second.

`CC(C)[C@@H](C)[C@@]1(C)CC[C@]2(C)[C@H]3CC[C@@H]4[C@@]5(COC[C@@]4(C)[C@@H](OC[C@](C)(N)C(C)(C)C)[C@H](n4ncnc4-c4ccc(O)nc4)C5)C3=CC[C@@]2(C)[C@@H]1C(=O)O` [Example 218, (1S,4aR,6aS,7R,8R,10aR,10bR,12aR,14R,15R)-15-[[(2R)-2-amino-2,3,3-trimethylbutyl]oxy]-8-[(1R)-1,2-dimethylpropyl]-14-[5-(6-hydroxy-3-pyridinyl)-1H-1,2,4-triazol-1-yl]-1,6,6a,7,8,9,10,10a,10b,11,12,12a-dodecahydro-1,6a,8,10a-tetramethyl-4H-1,4a-propano-2H-phenanthro[1,2-c]pyran-7-carboxylic acid] and `CC(C)[C@@H](C)[C@@]1(C)CC[C@]2(C)[C@H]3CC[C@@H]4[C@@]5(COC[C@@]4(C)[C@@H](OC[C@](C)(N)C(C)(C)C)[C@H](n4ncnc4-c4ccnc(N)c4)C5)C3=CC[C@@]2(C)[C@@H]1C(=O)O` [Example 214, (1S,4aR,6aS,7R,8R,10aR,10bR,12aR,14R,15R)-14-[5-(2-amino-4-pyridinyl)-1H-1,2,4-triazol-1-yl]-15-[[(2R)-2-amino-2,3,3-trimethylbutyl]oxy]-8-[(1R)-1,2-dimethylpropyl]-1,6,6a,7,8,9,10,10a,10b,11,12,12a-dodecahydro-1,6a,8,10a-tetramethyl-4H-1,4a-propano-2H-phenanthro[1,2-c]pyran-7-carboxylic acid] are within 1.5-fold of each other in IC50: 0.00107 µM for the first, 0.00134 µM for the second.

Compared with `CN[C@@](C)(CO[C@H]1[C@H](n2ncnc2C2=NCCCN2)C[C@@]23COC[C@]1(C)[C@@H]2CC[C@H]1C3=CC[C@@]2(C)[C@H](C(=O)O)[C@@](C)([C@H](C)C(C)C)CC[C@]12C)C(C)(C)C` [Example 136, (1S,4aR,6aS,7R,8R,10aR,10bR,12aR,14R,15R)-8-[(1R)-1,2-dimethylpropyl]-14-[5-(1,4,5,6-tetrahydro-2-pyrimidinyl)-1H-1,2,4-triazol-1-yl]-15-[[(2R)-2,3,3-trimethyl-2-(methylamino)butyl]oxy]-1,6,6a,7,8,9,10,10a,10b,11,12,12a-dodecahydro-1,6a,8,10a-tetramethyl-4H-1,4a-propano-2H-phenanthro[1,2-c]pyran-7-carboxylic acid], `COC(=O)c1cnnn1[C@@H]1C[C@@]23COC[C@](C)([C@@H]2CC[C@H]2C3=CC[C@@]3(C)[C@H](C(=O)O)[C@@](C)([C@H](C)C(C)C)CC[C@]23C)[C@H]1OC[C@](C)(N)C(C)C` (single isomer, unassigned) [Example 289B] is 10-fold higher in IC50: 0.012 µM for the first, 0.126 µM for the second.

For `CNC(=O)c1ncnn1[C@@H]1C[C@@]23COC[C@](C)([C@@H]2CC[C@H]2C3=CC[C@@]3(C)[C@H](C(=O)O)[C@@](C)([C@H](C)C(C)C)CC[C@]23C)[C@H]1OCC1(NC)CCSCC1` [Example 116, (1S,4aR,6aS,7R,8R,10aR,10bR,12aR,14R,15R)-8-[(1R)-1,2-dimethylpropyl]-14-[5-[(methylamino)carbonyl]-1H-1,2,4-triazol-1-yl]-15-[[tetrahydro-4-(methylamino)-2H-thiopyran-4-yl]methoxy]-1,6,6a,7,8,9,10,10a,10b,11,12,12a-dodecahydro-1,6a,8,10a-tetramethyl-4H-1,4a-propano-2H-phenanthro[1,2-c]pyran-7-carboxylic acid], the IC50 was 0.0203 µM.
